Laboratory results from US20110245280A1, “FRUGICIDAL MIXTURES BASED ON TRIAZOLES” (BASF AKTIENGESELLSCHAFT, priority 2002, published 2011).

System: mildew of wheat (Erysiphe [syn. Blumeria] graminis form a specialis tritici)
Assay: Activity against mildew of wheat, protective spray on potted wheat seedlings (cultivar Kanzler), greenhouse
Type: in vivo
Conditions: wheat leaves, 7 days after inoculation
Experimental: The active compounds, separately or together, were formulated as a 10% emulsion in a mixture of 63% by weight of cyclohexanone and 27% by weight of emulsifier, and diluted with water to the desired concentration.
Evaluation was carried out by determining the infected leaf areas in percent. These percentages were converted into efficacies. The efficacy (W) was calculated as follows using Abbot's formula:
[formula] • α corresponds to the fungal infection of the treated plants in % and • β corresponds to the fungal infection of the untreated (control) plants in %
An efficacy of 0 means that the infection level of the treated plants corresponds to that of the untreated control plants; an efficacy of 100 means that the treated plants were not infected.
The expected efficacies of the mixtures of the active compounds were determined using Colby's formula [R. S. Colby, Weeds 15, 20-22 (1967)] and compared with the observed efficacies.
Colby's formula: E=x+y−x·y/100 • E expected efficacy, expressed in % of the untreated control, when using the mixture of the active compounds A and B at the concentrations a and b • x efficacy, expressed in % of the untreated control, when using active compound A at a concentration of a • y efficacy, expressed in % of the untreated control, when using active compound B at a concentration of b.
Leaves of wheat seedlings of the cultivar “Kanzler” grown in pots were sprayed to run-off point with an aqueous suspension having the concentration of active compounds stated below. The suspension or emulsion was prepared from a stock solution made using 10% of active compound in a mixture comprising 70% of cyclohexanone, 20% of wetting agent and 10% of emulsifier. 24 hours after the spraycoating had dried on, the leaves dusted with spores of mildew of wheat (Erysiphe [syn. Blumeria] graminis form a specialis tritici). The test plants were then placed in a greenhouse at 20-24° C. and 60-90% relative atmospheric humidity.
After 7 days, the extent of the development of the mildew was determined visually in % infection of the entire leaf area.
The visually determined values for the percentage of diseased leaf area were converted into efficacies in % of the untreated control. An efficacy of 0 means the same disease level as in the untreated control, an efficacy of 100 means a disease level of 0%. The expected efficacies for the active compound combinations were determined using Colby's formula mentioned above and compared with the observed efficacies.

[1] = 0.06 ppm active compound in the spray liquor
[2] = 1 ppm active compound in the spray liquor
[3] = 4 ppm active compound in the spray liquor
[4] = 0.25 ppm active compound in the spray liquor

SMILES: CCCCC(C#N)(Cn1cncn1)c1ccc(Cl)cc1 (stereo not drawn) [Compound XIII, myclobutanil]
- Efficacy in % of the untreated control [1]: 0%
- Efficacy in % of the untreated control [2]: 11%
- Efficacy in % of the untreated control [3]: 56%

SMILES: OC(Cc1ccccc1Cl)(Cn1nc[nH]c1=S)C1(Cl)CC1 (stereo not drawn) [Compound I, 2-[2-(1-chlorocyclopropyl)-3-(2-chlorophenyl)-2-hydroxypropyl]-2,4-dihydro-[1,2,4]-triazole-3-thione]
- Efficacy in % of the untreated control (0.015 ppm active compound in the spray liquor): 0%
- Efficacy in % of the untreated control [1]: 0%
- Efficacy in % of the untreated control [4]: 0%
- Efficacy in % of the untreated control [2]: 0%
- Efficacy in % of the untreated control [3]: 56%

SMILES: Fc1ccc(C2(Cn3cncn3)OC2c2ccccc2Cl)cc1 (stereo not drawn) [Compound II, epoxiconazole]
- Efficacy in % of the untreated control [1]: 11%
- Efficacy in % of the untreated control [4]: 33%
- Efficacy in % of the untreated control [2]: 44%

SMILES: CC1(C)CCC(Cc2ccc(Cl)cc2)C1(O)Cn1cncn1 (stereo not drawn) [Compound III, metconazole]
- Efficacy in % of the untreated control [4]: 11%
